In ChEMBL document CHEMBL1149683, “Novel TOPP descriptors in 3D-QSAR analysis of apoptosis inducing 4-aryl-4H-chromenes: comparison versus other 2D- and 3D-descriptors” (2007):

Test system: HL-60
Test: Induction of apoptosis in human HL60 […]
Type: functional

SMILES | Log (1/C)
COc1ccc2c(c1)OC(N)=C(C#N)C2c1cc(Br)c(OC)c(OC)c1 (stereo not drawn) | 7.77
COc1ccc2c(c1)OC(N)=C(C#N)C2c1cccc(Br)c1 (stereo not drawn) | 7.28
COc1ccc2c(c1)OC(N)=C(C#N)C2c1cccc(Cl)c1 (stereo not drawn) | 7.1
COc1cc(OC)cc(C2C(C#N)=C(N)Oc3cc(OC)ccc32)c1 (stereo not drawn) | 7.82
COc1ccc2c(c1)OC(N)=C(C#N)C2c1cccc([N+](=O)[O-])c1 (stereo not drawn) | 7.05
CCNc1ccc2c(c1)OC(N)=C(C#N)C2c1cc(OC)c2c(c1)OCO2 (stereo not drawn) | 6.48
CCNc1cc2c(cc1C)C(c1cc(OC)c3c(c1)OCO3)C(C#N)=C(N)O2 (stereo not drawn) | 5.96
COc1cc(C2C(C#N)=C(N)Oc3cc(Cl)ccc32)cc(Br)c1OC (stereo not drawn) | 6.8
CCOc1ccc2c(c1)OC(N)=C(C#N)C2c1cc(Br)c(OC)c(OC)c1 (stereo not drawn) | 7.19
COc1cc(C2C(C#N)=C(N)Oc3cc(O)ccc32)cc(Br)c1OC (stereo not drawn) | 6.89
COc1cc(C2C(C#N)=C(N)Oc3c2ccc(N)c3C)cc2c1OCO2 (stereo not drawn) | 6.51
N#CC1=C(N)Oc2c(ccc(N)c2N)C1c1cccc(Br)c1 (stereo not drawn) | 6.82
COc1cc(C2C(C#N)=C(N)Oc3c2ccc(O)c3O)cc(Br)c1OC (stereo not drawn) | 5.77
COc1ccc2c(c1)OC(N)=C(C#N)C2c1ccccc1 (stereo not drawn) | 6.44
COc1ccc2c(c1)OC(N)=C(C#N)C2c1cc(OC)c(OC)c(OC)c1 (stereo not drawn) | 7.59
COc1ccc2c(c1)OC(N)=C(C#N)C2c1cc(OC)c2c(c1)OCO2 (stereo not drawn) | 6.8
COc1ccc2c(c1)OC(N)=C(C#N)C2c1cccnc1 (stereo not drawn) | 6.77
N#CC1=C(N)Oc2c(ccc(N)c2N)C1c1cccc(C#N)c1 (stereo not drawn) | 6.41
COc1cc(C2C(C#N)=C(N)Oc3cc4c(cc32)OCO4)cc2c1OCO2 (stereo not drawn) | 6.68
COc1cc(C2C(C#N)=C(N)Oc3c2ccc(C)c3C)cc(Br)c1OC (stereo not drawn) | 7.38
COc1cc(C2C(C#N)=C(N)Oc3c2ccc(N)c3N)cc(Br)c1O (stereo not drawn) | 7.64
COc1cc(C2C(C#N)=C(N)Oc3c2ccc(N)c3N)cc(I)c1OC (stereo not drawn) | 5.31
COc1cc(C2C(C#N)=C(N)Oc3c2ccc(N)c3N)cc(Cl)c1OC (stereo not drawn) | 7.62
COc1cccc(C2C(C#N)=C(N)Oc3cc(N(C)C)ccc32)c1OC (stereo not drawn) | 5.99
CN(C)c1ccc2c(c1)OC(N)=C(C#N)C2c1cccc(Br)c1 (stereo not drawn) | 7.19

SMILES | Log (1/C)
CN(C)c1ccc2c(c1)OC(N)=C(C#N)C2c1cccc(Cl)c1 (stereo not drawn) | 6.95
CN(C)c1ccc2c(c1)OC(N)=C(C#N)C2c1cccs1 (stereo not drawn) | 6.7
CN(C)c1ccc2c(c1)OC(N)=C(C#N)C2c1cccnc1 (stereo not drawn) | 7.17
COc1cc(C2C(C#N)=C(N)Oc3cc(N(C)C)ccc32)cc(Cl)c1OC (stereo not drawn) | 7.74
COc1ccc(C2C(C#N)=C(N)Oc3cc(N(C)C)ccc32)c(OC)c1OC (stereo not drawn) | 5.5
CN(C)c1ccc2c(c1)OC(N)=C(C#N)C2c1cccc(F)c1 (stereo not drawn) | 7.09
COc1cc(C2C(C#N)=C(N)Oc3cc(N(C)C)ccc32)cc(I)c1OC (stereo not drawn) | 7.74
CN(C)c1ccc2c(c1)OC(N)=C(C#N)C2c1ccccn1 (stereo not drawn) | 6.33
COc1cc(OC)c(C2C(C#N)=C(N)Oc3cc(N(C)C)ccc32)cc1OC (stereo not drawn) | 5.75
Cc1cncc(C2C(C#N)=C(N)Oc3cc(N(C)C)ccc32)c1 (stereo not drawn) | 7.96
Cc1cccc(C2C(C#N)=C(N)Oc3cc(N(C)C)ccc32)n1 (stereo not drawn) | 6.61
CN(C)c1ccc2c(c1)OC(N)=C(C#N)C2c1cccc(OC(F)(F)F)c1 (stereo not drawn) | 6.35
COc1ccc(C2C(C#N)=C(N)Oc3cc(N(C)C)ccc32)cc1 (stereo not drawn) | 5.8
Cc1cccc(C2C(C#N)=C(N)Oc3cc(N(C)C)ccc32)c1 (stereo not drawn) | 6.87
CN(C)c1ccc2c(c1)OC(N)=C(C#N)C2c1cc(Br)c2c(c1)OCO2 (stereo not drawn) | 6.61
CN(C)c1ccc2c(c1)OC(N)=C(C#N)C2c1cc(Cl)cc(Cl)c1 (stereo not drawn) | 7.12
COc1ccc(C2C(C#N)=C(N)Oc3cc(N(C)C)ccc32)cc1OC (stereo not drawn) | 6.6
CCNc1ccc2c(c1)OC(N)=C(C#N)C2c1cccc(Cl)c1 (stereo not drawn) | 6.92
CCNc1ccc2c(c1)OC(N)=C(C#N)C2c1cc(OC)c(OC)c(OC)c1 (stereo not drawn) | 7.31
CCNc1ccc2c(c1)OC(N)=C(C#N)C2c1cccc(OC)c1 (stereo not drawn) | 6.96
COc1ccc(CC2C(C#N)=C(N)Oc3cc(N(C)C)ccc32)c(Br)c1OC (stereo not drawn) | 5.14
CCN(CC)c1ccc2c(c1)OC(N)=C(C#N)C2c1cc(OC)c2c(c1)OCO2 (stereo not drawn) | 6.32
COc1cc(C2C(C#N)=C(N)Oc3cc(O)ccc32)cc2c1OCO2 (stereo not drawn) | 5.24
COc1cc(C2C(C#N)=C(N)Oc3cc(Br)ccc32)cc(Br)c1OC (stereo not drawn) | 6.85
COc1cc(C2C(C#N)=C(N)Oc3c2ccc(N)c3N)cc(Br)c1OC (stereo not drawn) | 7.47

SMILES | Log (1/C)
COc1cc(OC)cc(C2C(C#N)=C(N)Oc3c2ccc(N)c3N)c1 (stereo not drawn) | 7.04
CCNc1ccc2c(c1)OC(N)=C(C#N)C2c1cc(Br)c(OC)c(OC)c1 (stereo not drawn) | 7.85
COc1cccc(C2C(C#N)=C(N)Oc3cc(OC)ccc32)c1 (stereo not drawn) | 7.28
COc1cc(C2C(C#N)=C(N)Oc3cc(N(C)C)ccc32)cc2c1OCO2 (stereo not drawn) | 7.14
COc1cc(C2C(C#N)=C(N)Oc3cc(N)ccc32)cc2c1OCO2 (stereo not drawn) | 5.92
CN(C)c1ccc2c(c1)OC(N)=C(C#N)C2c1cccc(O)c1 (stereo not drawn) | 6.57
CN(C)c1ccc2c(c1)OC(N)=C(C#N)C2c1cc(Br)cs1 (stereo not drawn) | 6.82
CN(C)c1ccc2c(c1)OC(N)=C(C#N)C2c1cccc(C#N)c1 (stereo not drawn) | 7.2
CN(C)c1ccc2c(c1)OC(N)=C(C#N)C2CCc1ccccc1 (stereo not drawn) | 6.37
CN(C)c1ccc2c(c1)OC(N)=C(C#N)C2c1cnc2ccccc2c1 (stereo not drawn) | 5.74
N#CC1=C(N)Oc2c(ccc(N)c2N)C1c1cccc([N+](=O)[O-])c1 (stereo not drawn) | 6.41
COc1cc(C2C(C#N)=C(N)Oc3c2ccc(O)c3N)cc(Br)c1OC (stereo not drawn) | 7.21
COc1cncc(C2C(C#N)=C(N)Oc3cc(OC)ccc32)c1 (stereo not drawn) | 7.33
COc1cc(C2C(C#N)=C(N)Oc3cc(N)ccc32)cc(Br)c1OC (stereo not drawn) | 7.48
COc1cccc(C2C(C#N)=C(N)Oc3cc(N(C)C)ccc32)c1 (stereo not drawn) | 7.19
COc1cc(C2C(C#N)=C(N)Oc3cc(N(C)C)ccc32)cc(Br)c1O (stereo not drawn) | 7.39
CCNc1ccc2c(c1)OC(N)=C(C#N)C2c1cccc([N+](=O)[O-])c1 (stereo not drawn) | 6.96
CCNc1ccc2c(c1)OC(N)=C(C#N)C2c1cc(OC)cc(OC)c1 (stereo not drawn) | 7.26
CN(C)c1ccc2c(c1)OC(N)=C(C#N)C2c1ccncc1 (stereo not drawn) | 6.42
COc1cc(Br)cc(C2C(C#N)=C(N)Oc3cc(N(C)C)ccc32)c1 (stereo not drawn) | 7.51
CN(C)c1ccc2c(c1)OC(N)=C(C#N)C2c1cncc(Br)c1 (stereo not drawn) | 7.48
COc1cc(C2C(C#N)=C(N)Oc3c2ccc(N)c3C)cc(Br)c1OC (stereo not drawn) | 7.59
COc1ccccc1C1C(C#N)=C(N)Oc2cc(N(C)C)ccc21 (stereo not drawn) | 6.55
